For this assay, the system named is P388 leukemia ip, CD2F1 mice, survival T/C. The assay can be described thus: NCI In Vivo Anticancer Drug Screen. Data for tumor model P388 Leukemia (intraperitoneal) in CD2F1 (CDF1) mice. Conditions: endpoint: median survival time, higher = longer survival. The method in brief:
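Mice carrying the transplanted tumor received test compound or vehicle. Survival was recorded in each group, and the value is the treated-group measurement divided by that of the vehicle-treated control group.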

The mark [1] stands for this setting: dose: 60.0 mg/kg/injection, schedule: Q01DX005 (ip), vehicle: Klucel (hydroxypropylcellulose) (HPC).
Where [2] appears, read: dose: 50.0 mg/kg/injection, schedule: Q01DX005 (ip), vehicle: saline with Tween-80.
Where [3] appears, read: dose: 100.0 mg/kg/injection, schedule: Q01DX005 (ip), vehicle: saline with Tween-80.
Where [4] appears, read: dose: 200.0 mg/kg/injection, schedule: Q01DX005 (ip), vehicle: saline with Tween-80.
The mark [5] stands for this setting: dose: 50.0 mg/kg/injection, schedule: Q01DX005 (ip), vehicle: Klucel (hydroxypropylcellulose) (HPC).
Where [6] appears, read: dose: 100.0 mg/kg/injection, schedule: Q01DX005 (ip), vehicle: Klucel (hydroxypropylcellulose) (HPC).
Setting [7] is: dose: 200.0 mg/kg/injection, schedule: Q01DX005 (ip), vehicle: Klucel (hydroxypropylcellulose) (HPC).
[8] abbreviates: dose: 100.0 mg/kg/injection, schedule: Q01DX009 (ip), vehicle: saline.
Setting [9] is: dose: 60.0 mg/kg/injection, schedule: Q01DX005 (ip), vehicle: saline with Tween-80.
Setting [10] is: dose: 120.0 mg/kg/injection, schedule: Q01DX005 (ip), vehicle: saline with Tween-80.
The mark [11] stands for this setting: dose: 240.0 mg/kg/injection, schedule: Q01DX005 (ip), vehicle: saline with Tween-80.

Results on 20 compounds are retold here after PubChem BioAssay AID330 (DTP/NCI, 2004).

“And” between values parts separate entries of the source, which are not always exact repeats. Equal entries are not always repeated. Toxic doses and inconclusive results are not listed.

`COc1ccccc1N1CCN(C(=O)CCCl)CC1`: the T/C was 109 % of control under setting [1]; 103 % of control (dose: 120.0 mg/kg/injection, schedule: Q01DX005 (ip), vehicle: Klucel (hydroxypropylcellulose) (HPC)); 105 % of control (dose: 240.0 mg/kg/injection, schedule: Q01DX005 (ip), vehicle: Klucel (hydroxypropylcellulose) (HPC)).
Turning to `OCCCCCCCCCCCN1CCOCC1`, the T/C by setting is: under setting [2], 106 % of control; under setting [3], 98 % of control; under setting [4], 101 % of control.
Turning to `N#Cc1ccc(Br)cc1[N+](=O)[O-]`, the T/C by setting is: (dose: 0.78 mg/kg/injection, schedule: Q01DX009 (ip), vehicle: Klucel (hydroxypropylcellulose) (HPC)) 106 % of control; (dose: 1.56 mg/kg/injection, schedule: Q01DX009 (ip), vehicle: Klucel (hydroxypropylcellulose) (HPC)) 102 % of control; (dose: 3.12 mg/kg/injection, schedule: Q01DX009 (ip), vehicle: Klucel (hydroxypropylcellulose) (HPC)) 100 % of control and 96 % of control.
Turning to `CN(C)CS/C(=N\C(O)C(Cl)(Cl)Cl)NC(O)C(Cl)(Cl)Cl` (configuration not stated), the T/C under setting [5] was 97 % of control, the T/C under setting [6] was 99 % of control and the T/C under setting [7] was 99 % of control.
Take `C=C1CC23CC4C5C6(C)CC(O)CC57C(C2C(O)C1C(O)C37)N4C6` (configuration not stated): the T/C was 101 % of control (dose: 12.5 mg/kg/injection, schedule: Q01DX009 (ip), vehicle: Klucel (hydroxypropylcellulose) (HPC)); 106 % of control (dose: 25.0 mg/kg/injection, schedule: Q01DX009 (ip), vehicle: Klucel (hydroxypropylcellulose) (HPC)); 101 % of control (dose: 50.0 mg/kg/injection, schedule: Q01DX009 (ip), vehicle: Klucel (hydroxypropylcellulose) (HPC)).
Turning to `COc1cc2c(c(OC)c1OC)-c1ccc(OC)c(=O)cc1[C@@H](NC(=O)CCl)CC2`, the T/C is, setting by setting: (dose: 0.06 mg/kg/injection, schedule: Q01DX009 (ip), vehicle: Klucel (hydroxypropylcellulose) (HPC)) 114 % of control; (dose: 0.12 mg/kg/injection, schedule: Q01DX009 (ip), vehicle: saline with Tween-80) 166 % of control; (dose: 0.13 mg/kg/injection, schedule: Q01DX009 (ip), vehicle: saline with Tween-80) 156 % of control; (dose: 0.15 mg/kg/injection, schedule: Q01DX009 (ip), vehicle: saline) 103 % of control; (dose: 0.25 mg/kg/injection, schedule: Q01DX009 (ip), vehicle: Klucel (hydroxypropylcellulose) (HPC)) 115 % of control; (dose: 0.25 mg/kg/injection, schedule: Q01DX009 (ip), vehicle: saline with Tween-80) 153 % of control and 173 % of control. The T/C by setting is: (dose: 0.31 mg/kg/injection, schedule: Q01DX009 (ip), vehicle: saline) 122 % of control; (dose: 0.5 mg/kg/injection, schedule: Q01DX009 (ip), vehicle: saline with Tween-80) 93 % of control; (dose: 1.25 mg/kg/injection, schedule: Q01DX009 (ip), vehicle: saline) 167 % of control.
Regarding `Nc1nnc(Cc2nnc(N)o2)o1`, the T/C by setting is: under setting [2], 101 % of control; under setting [3], 101 % of control; under setting [4], 98 % of control.
With `Nc1c(CC(=O)O)cccc1C(=O)c1ccccc1`, the T/C (dose: 50.0 mg/kg/injection, schedule: Q01DX009 (ip), vehicle: saline) was 87 % of control and the T/C under setting [8] was 92 % of control.
As to `Cc1cc(CC(O)(c2ccccc2)c2ccccc2)nc2[nH]c(=O)ccc12`, the T/C runs as follows: (dose: 25.0 mg/kg/injection, schedule: Q01DX005 (ip), vehicle: Klucel (hydroxypropylcellulose) (HPC)) 97 % of control; under setting [5], 103 % of control; under setting [6], 98 % of control; under setting [7], 96 % of control.
Consider `COC(=O)C1CCOCCCOCCCOCCCOCCCOCCCC1=O` (configuration not stated), for which the T/C by setting is: under setting [2], 100 % of control; under setting [3], 105 % of control; under setting [4], 100 % of control.
On to `COC1OC(=O)C(Cl)=C1N=[N+]=[N-]` (configuration not stated), for which the T/C is, setting by setting: (dose: 15.0 mg/kg/injection, schedule: Q01DX005 (ip), vehicle: Klucel (hydroxypropylcellulose) (HPC)) 105 % of control; (dose: 30.0 mg/kg/injection, schedule: Q01DX005 (ip), vehicle: Klucel (hydroxypropylcellulose) (HPC)) 102 % of control; under setting [1], 109 % of control.
With `CCCCCCCCCCCCCCCCSc1nc2ccc(N=Cc3ccccc3O)cc2s1`, the T/C (dose: 100.0 mg/kg/injection, schedule: Q04DX003 (ip), vehicle: Klucel (hydroxypropylcellulose) (HPC)) is 92 % of control; the T/C (dose: 200.0 mg/kg/injection, schedule: Q04DX003 (ip), vehicle: Klucel (hydroxypropylcellulose) (HPC)) is 90 % of control; the T/C (dose: 400.0 mg/kg/injection, schedule: Q04DX003 (ip), vehicle: Klucel (hydroxypropylcellulose) (HPC)) is 91 % of control.
Take `N#CNC(=NC12CC3CC(CC(C3)C1)C2)Nc1ccncc1`: the T/C was 100 % of control (dose: 100.0 mg/kg/injection, schedule: Q04DX002 (ip), vehicle: saline with Tween-80) and 109 % of control (dose: 400.0 mg/kg/injection, schedule: Q04DX002 (ip), vehicle: saline with Tween-80).
As to `CC1(C)OC2CC3CC(O)CC3C2O1` (configuration not stated), the T/C under setting [9] was 98 % of control, the T/C under setting [10] was 102 % of control and the T/C under setting [11] is 102 % of control.
Turning to `COC(=O)C(C)(OC)SC` (configuration not stated), the T/C under setting [9] was 106 % of control, the T/C under setting [10] was 100 % of control and the T/C under setting [11] is 98 % of control.
The matching figures for `Nc1nnc(-c2cc([N+](=O)[O-])cc([N+](=O)[O-])c2)o1`: 108 % of control, 94 % of control and 100 % of control.
As for `O=S(=O)(O)c1ccc(/C2=c3\cc/c([n-]3)=C(\c3ccc(S(=O)(=O)O)cc3)c3ccc([n-]3)/C(c3ccc(S(=O)(=O)O)cc3)=c3/cc/c([n-]3)=C(\c3ccc(S(=O)(=O)O)cc3)c3ccc2[n-]3)cc1.[Zn]`, the T/C reads like this: (dose: 0.98 mg/kg/injection, schedule: Q01DX009 (ip), vehicle: saline with Tween-80) 103 % of control and 111 % of control; (dose: 1.95 mg/kg/injection, schedule: Q01DX009 (ip), vehicle: saline with Tween-80) 100 % of control and 104 % of control; (dose: 3.9 mg/kg/injection, schedule: Q01DX009 (ip), vehicle: saline with Tween-80) 99 % of control and 114 % of control; (dose: 7.8 mg/kg/injection, schedule: Q01DX009 (ip), vehicle: saline with Tween-80) 114 % of control; (dose: 15.62 mg/kg/injection, schedule: Q01DX009 (ip), vehicle: saline with Tween-80) 100 % of control and 112 % of control.
As to `CSc1nc(N)nc2c1ncn2C1OC(CO)C(O)C1O` (configuration not stated), the T/C was 90 % of control (dose: 100.0 mg/kg/injection, schedule: Q01DX009 (ip), vehicle: saline with Tween-80); 100 % of control (dose: 100.0 mg/kg/injection, schedule: Q04DX003 (ip), vehicle: saline sonified); 86 % of control (dose: 200.0 mg/kg/injection, schedule: Q01DX009 (ip), vehicle: saline with Tween-80); 100 % of control (dose: 200.0 mg/kg/injection, schedule: Q04DX003 (ip), vehicle: saline sonified); 100 % of control (dose: 400.0 mg/kg/injection, schedule: Q01DX009 (ip), vehicle: saline with Tween-80); 95 % of control (dose: 400.0 mg/kg/injection, schedule: Q04DX003 (ip), vehicle: saline sonified).
For `COc1ccc(NN=O)nc1Br`, the T/C reads like this: (dose: 3.12 mg/kg/injection, schedule: Q01DX009 (ip), vehicle: saline) 108 % of control; (dose: 6.25 mg/kg/injection, schedule: Q01DX009 (ip), vehicle: saline) 108 % of control; (dose: 12.5 mg/kg/injection, schedule: Q01DX009 (ip), vehicle: saline) 108 % of control and 109 % of control; (dose: 25.0 mg/kg/injection, schedule: Q01DX009 (ip), vehicle: saline) 110 % of control and 120 % of control; under setting [8], 157 % of control.
For the compound `CCc1ccc(NC2=NCCO2)cc1`, the T/C was 100 % of control (dose: 12.5 mg/kg/injection, schedule: Q01DX009 (ip), vehicle: saline with Tween-80); 105 % of control (dose: 25.0 mg/kg/injection, schedule: Q01DX009 (ip), vehicle: saline with Tween-80); 100 % of control (dose: 50.0 mg/kg/injection, schedule: Q01DX009 (ip), vehicle: saline with Tween-80).
